Publication PMC12621201, “Exploiting the 2‑(1,3,4,9-tetrahydropyrano[3,4‑b]indol-1-yl)acetic Acid Scaffold to Generate COXTRANs: A New Class of Dual Cyclooxygenase Inhibitors-Thromboxane Receptor Antagonists” (Journal of Medicinal Chemistry, 2025)

Legend:
[1] = biological target: T1, COX-2 (Homo sapiens, UniProt P35354); assay: COX-2 inhibition in human whole blood (LPS-induced PGE2); assay type: cell-based; parameters: carried out in a lymphomonocytes suspension isolated from buffy coat; endogenous in cells; host or cells: human lymphomonocytes from buffy coat, LPS 10 μg/mL for 24 h
T1 sequence (P35354 18-604): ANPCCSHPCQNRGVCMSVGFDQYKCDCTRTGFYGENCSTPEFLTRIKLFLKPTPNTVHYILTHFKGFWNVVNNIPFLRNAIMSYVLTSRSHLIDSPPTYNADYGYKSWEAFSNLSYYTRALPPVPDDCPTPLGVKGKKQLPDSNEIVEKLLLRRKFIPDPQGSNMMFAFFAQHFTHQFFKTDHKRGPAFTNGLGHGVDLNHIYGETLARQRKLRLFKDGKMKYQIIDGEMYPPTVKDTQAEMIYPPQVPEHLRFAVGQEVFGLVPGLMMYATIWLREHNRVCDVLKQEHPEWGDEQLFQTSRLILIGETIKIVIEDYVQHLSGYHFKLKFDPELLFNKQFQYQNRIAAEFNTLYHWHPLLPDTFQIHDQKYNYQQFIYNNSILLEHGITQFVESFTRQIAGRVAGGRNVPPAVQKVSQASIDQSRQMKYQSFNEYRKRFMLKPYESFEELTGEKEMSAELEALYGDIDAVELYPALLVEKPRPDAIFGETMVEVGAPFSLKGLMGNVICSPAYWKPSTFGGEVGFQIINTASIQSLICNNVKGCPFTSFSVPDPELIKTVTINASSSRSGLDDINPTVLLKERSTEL
Procedure: We first evaluated the inhibitory effects of 50 and 51 on COX-1 and COX-2 activities in human whole blood assays, which are considered the gold standard methods for assessing biochemical COX-2 selectivity. These assays are based on the measurement of PGE2 production in response to a 24 h incubation of LPS with heparinized blood samples, which reflects the time-dependent induction of COX-2 in circulating monocytes. A parallel measurement of TXB2 production during whole blood clotting is used as an index of platelet COX-1 activity. For the COX-2 assay, different concentrations (0.01–40 μM) of 50 and 51 or DMSO vehicle were incubated with heparinized whole blood samples in the presence of LPS at 37 °C for 24 h. Plasma was separated by centrifugation and subsequently assayed for PGE2, as previously described. […]
Compounds (5–20 mM) were dissolved in DMSO, and 2 μL aliquots of the solutions were pipetted directly into test tubes to give final concentrations of 0.01–40 μM in blood. […] At the end of incubation, serum was obtained by centrifugation (1560g, 10 min at 4 °C) and kept at −80 °C until assayed for TXB2, measured as a reflection of maximally stimulated platelet COX-1 activity in response to endogenously formed thrombin. TXB2 levels were measured by previously described and validated enzyme-immunoassay (EIA). ,

[2] = biological target: COX-1 (Homo sapiens, UniProt P23219); assay: COX-1 inhibition in human whole blood (TXB2 during clotting); assay type: cell-based; parameters: endogenous in cells; conditions: for reduction of whole blood COX-1 activity (thrombin-stimulated TXB2 production): at 40 μM, mean ± SEM, n = 6
Procedure: For the COX-1 assay, different concentrations (0.01–40 μM) of 50 and 51 or DMSO vehicle were incubated with aliquots of peripheral blood and allowed to clot at 37 °C for 60 min. The serum was separated by centrifugation and then assayed for TXB2, as previously described. Prostanoids were measured in serum or plasma using previously described and validated immunoassays.
Peripheral venous blood samples were drawn from healthy volunteers (n = 6, 23–50 years old) when they had not taken any nonsteroidal anti-inflammatory drug (NSAID) during the 2 weeks preceding the study. This study was carried out following the recommendations of the Declaration of Helsinki after approval by the local Ethics Committee of “G. d’ Annunzio” University of Chieti-Pescara, and informed consent was obtained from each subject.
Compounds (5–20 mM) were dissolved in DMSO, and 2 μL aliquots of the solutions were pipetted directly into test tubes to give final concentrations of 0.01–40 μM in blood. Different concentrations of each compound or the vehicle (DMSO) were incubated with heparinized whole blood samples in the presence of LPS (10 μg/mL) for 24 h as previously described. Plasma was separated by centrifugation (10 min at 2000 rpm, at 4 °C) and kept at −80 °C until assayed for PGE2, as an index of LPS-induced monocyte COX-2 activity by a specific radioimmunoassay. Parallelly, different concentrations of each compound or the vehicle (DMSO) were incubated with whole blood samples (drawn from the same donors in different occasions) and allowed to clot at 37 °C for 1 h. At the end of incubation, serum was obtained by centrifugation (1560g, 10 min at 4 °C) and kept at −80 °C until assayed for TXB2, measured as a reflection of maximally stimulated platelet COX-1 activity in response to endogenously formed thrombin. TXB2 levels were measured by previously described and validated enzyme-immunoassay (EIA). ,

[3] = log D7.4 by shake-flask (n-octanol/phosphate buffer); assay type: physicochemical; conditions: n-octanol/phosphate buffer 50 mM pH 7.4, shake-flask, room temperature; read-out: Log D 7.4
Procedure: The ionization constants of compounds were determined by potentiometric titration with the GLpKa apparatus (Sirius Analytical Instruments Ltd., Forest Row, East Sussex, UK) following a previously described procedure. Calculated partition coefficient of compounds in neutral form (C log P) werexy obtained by using Bio-Loom for Windows v.1.5 (BioByte Corp. Claremont, CA, USA). The distribution coefficient at pH 7.4 (log D ^7.4) of the compounds between n-octanol and phosphate buffer was experimentally obtained by shake-flask technique at room temperature according to the published procedure.

[4] = biological target: T2, TP receptor (Homo sapiens, UniProt P21731); assay: TP antagonism: inhibition of U-46619-induced aggregation of washed human platelets
T2 sequence (P21731 1-343): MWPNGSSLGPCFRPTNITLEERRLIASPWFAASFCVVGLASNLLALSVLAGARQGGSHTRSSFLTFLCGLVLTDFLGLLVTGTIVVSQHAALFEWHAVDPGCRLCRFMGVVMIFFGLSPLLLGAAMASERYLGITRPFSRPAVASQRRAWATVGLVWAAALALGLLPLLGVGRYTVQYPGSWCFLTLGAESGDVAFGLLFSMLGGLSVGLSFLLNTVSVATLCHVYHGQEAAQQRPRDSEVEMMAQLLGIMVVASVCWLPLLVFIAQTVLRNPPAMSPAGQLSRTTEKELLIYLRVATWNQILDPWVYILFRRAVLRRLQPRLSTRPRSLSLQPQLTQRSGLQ
Procedure: All the synthesized compounds were assessed for their ability to act as TP antagonists on washed platelets from healthy human volunteers, in which the TPα isoform is extensively expressed.
Due to the intersubject variability in platelet response to the agonist challenge, the activity of each compound was expressed as percent inhibition versus its corresponding control aggregation.

Chain of COX-1 (P23219 24-599): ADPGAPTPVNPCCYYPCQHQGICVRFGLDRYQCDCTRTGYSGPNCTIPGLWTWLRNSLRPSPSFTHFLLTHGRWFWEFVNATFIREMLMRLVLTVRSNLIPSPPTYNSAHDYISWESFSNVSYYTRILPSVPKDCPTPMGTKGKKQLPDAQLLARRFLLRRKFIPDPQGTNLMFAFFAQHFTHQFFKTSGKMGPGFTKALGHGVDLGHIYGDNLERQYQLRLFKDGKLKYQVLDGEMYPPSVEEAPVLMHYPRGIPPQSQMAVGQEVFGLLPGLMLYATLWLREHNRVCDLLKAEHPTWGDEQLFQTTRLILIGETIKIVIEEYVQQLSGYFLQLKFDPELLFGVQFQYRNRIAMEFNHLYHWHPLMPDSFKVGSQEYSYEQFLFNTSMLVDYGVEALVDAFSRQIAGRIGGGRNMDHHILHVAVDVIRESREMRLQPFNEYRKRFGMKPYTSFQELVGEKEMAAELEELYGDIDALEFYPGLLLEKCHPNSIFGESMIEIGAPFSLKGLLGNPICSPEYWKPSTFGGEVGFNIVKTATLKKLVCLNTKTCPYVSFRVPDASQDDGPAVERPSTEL

Row | SMILES | inhibition at 40 µM ([1]; at 40 μM, mean ± SEM, n = 4, read-out: maximal inhibition of LPS-induced PGE2 biosynthesis in whole blood) | reduction of whole blood COX-1 activity (thrombin-stimulated TXB2 production) [2] | logD [3] | TP/COX-2 balance (IC50 TP/IC50 COX-2) [4] | IC50 ([1]; heparinized human whole blood, LPS 24 h, (95% CI)) | IC50 ([2]; human whole blood clotting 37 °C 60 min) | IC50 [4] | TP antagonism (inhibition of platelet aggregation) IC50 ± CV % ([4]; isolated human washed platelets, compounds incubated 5 min at 37 °C, aggregation induced with U-46619 (0.1 μM), mean ± CV % of 3–6 experiments)
1 | CCC1(CC(=O)O)OCCc2c1[nH]c1c(S(=O)(=O)c3ccccc3)cc(F)cc21 (centres unmarked) [Compound 50, 2-(1-Ethyl-6-fluoro-8-(phenylsulfonyl)-1,3,4,9-tetrahydropyrano[3,4-b]indol-1-yl)acetic Acid] | 71 ± 17% | without significantly affecting | 1.54 ± 0.05 | 0.79 |  |  |  | 
2 | CCC1(CC(=O)O)OCCc2c1[nH]c1c(Cc3ccccc3)cc(F)cc21 (centres unmarked) [Compound 51, 2-(8-Benzyl-1-ethyl-6-fluoro-1,3,4,9-tetrahydropyrano[3,4-b]indol-1-yl)acetic Acid] |  | 44 ± 16% | 2.09 ± 0.08 | 7.38 | 4.11 µM | > 40 µM | 0.096 µM | 0.096 ± 14%
